Results published in patent US20250295799A1, “ANTIBODY-DRUG CONJUGATES TARGETING GLYPICAN-3 AND METHODS OF USE” (Zymeworks BC Inc., priority 2022, published 2025).

Key:
[1] = system: HepG2 cells (GPC3-high); experiment: On-cell binding by flow cytometry; conditions: 24 h at 4 °C
Method: Briefly, cells were seeded at 50,000 cells/well in V-bottom 96-well plates and treated with antibody for 24 hours at 4° C. to prevent internalization. […] Following incubation and washing, fluorescence was detected by flow cytometry on a BD LSRFortessa™ Cell Analyzer (BD Biosciences, Franklin Lake, NJ) with 1,000 minimum events collected per well.

[2] = system: Hep G2 cells (high GPC3-expressing); experiment: Internalization by flow cytometry (quenched AF488); type: cell-based; conditions: antibody 10 nM
Method: (§1) Cells were seeded at 50,000 cells/well in 48-well plates and incubated overnight under standard culturing conditions (37° C./5% CO2) in Gibco™ Dulbecco's Modified Eagle Media (DMEM) (Thermo Fisher Scientific, Waltham, MA; Cat. No. 11995040) with 10% Fetal Bovine Serum (FBS) (Thermo Fisher Scientific, Waltham, MA; Cat. No. 12483020) for Hep G2 cells, and Gibco™ William's E Medium, GlutaMAX™ Supplement (Thermo Fisher Scientific, Waltham, MA; Cat. No. 32551020) with 10% FBS (Thermo Fisher Scientific, Waltham, MA; Cat. No. 12483020) for JHH-7 cells. Coupled antibodies were added to cells the following day at 10 nM or at 100 nM and incubated under standard culturing conditions for 5-24 hours to allow for internalization. Following incubation, cells were dissociated, washed, and surface AF488 fluorescence was quenched using an anti-AF488 antibody (Life Technologies, Carlsbad, CA; Cat. No. A-11094) at 100 nM for 30 minutes at 4° C. Quenched AF488 fluorescence (internalized fluorescence) was detected by flow cytometry on a BD LSRFortessa™ Cell Analyzer (BD Biosciences, Franklin Lake, NJ) with 1,000 minimum events collected per well.

[3] = system: JHH-7 cells (high GPC3-expressing); experiment: Internalization by flow cytometry (quenched AF488); type: cell-based; conditions: antibody 10 nM
Method: as §1
as §1, with “CO2)” for “CO2) in Gibco™ Dulbecco's Modified Eagle Media (DMEM) (Thermo Fisher Scientific, Waltham, MA; Cat. No. 11995040) with 10% Fetal Bovine Serum (FBS) (Thermo Fisher Scientific, Waltham, MA; Cat. No. 12483020) for Hep G2 cells, and”, “12483020).” for “12483020) for JHH-7 cells.”, “5” for “10 nM or at 100”, “24” for “5-24”, “well. […]” for “well.”

[4] = system: JHH-7 cells (GPC3-high); experiment: On-cell binding by flow cytometry; conditions: 24 h at 4 °C
Method: Briefly, cells were seeded at 50,000 cells/well in V-bottom 96-well plates and treated with antibody for 24 hours at 4° C. to prevent internalization. […] Following incubation and washing, fluorescence was detected by flow cytometry on a BD LSRFortessa™ Cell Analyzer (BD Biosciences, Franklin Lake, NJ) with 1,000 minimum events collected per well. AF647/APC-A GeoMean (fluorescence signal geometric mean, proportional to anti-Human AF647 binding) in live cell population was plotted against antibody concentration using GraphPad Prism Version 9 (GraphPad Software, San Diego, CA). The Bmax, Curve Hill Slope (h) and Kd values were derived from the “Specific binding with Hill slope” nonlinear regression curve fit in GraphPad Prism Version 9.
The on-cell binding capabilities of light chain (LC)-modified M3-H18L6 antibody constructs were assessed on JHH-7 (hepatocellular carcinoma; GPC3-high) and JHH-5 (hepatocellular carcinoma; GPC3-mid) by flow cytometry as described below. […] The assay was carried out as described in Example 13.
Briefly, plasma stress was carried out by incubating M3-H18L6 LC-modified antibodies in mouse plasma (BioIVT, Westbury, NY; Cat. No. MSE00PL38NC-0103070) for 14 days in a 37° C./5% CO2 incubator. […] Following incubation and washing, fluorescence was detected by flow cytometry on a BD LSRFortessa™ Cell Analyzer (BD Biosciences, Franklin Lake, NJ) with 1,000 minimum events collected per well. AF647/APC-A GeoMean (fluorescence signal geometric mean, proportional to anti-Human AF647 binding) in live cell population was plotted against antibody concentration using GraphPad Prism Version 9 (GraphPad Software, San Diego, CA). […] Following incubation, cells were dissociated, washed, and surface AF488 fluorescence was quenched using an anti-AF488 antibody (Life Technologies, Carlsbad, CA; Cat. No. A-11094) at 100 nM for 30 minutes at 4° C. Quenched AF488 fluorescence (internalized fluorescence) was detected by flow cytometry on a BD LSRFortessa™ Cell Analyzer (BD Biosciences, Franklin Lake, NJ) with 1,000 minimum events collected per well.

palivizumab [v22277 (palivizumab)]
1.0 fold: Internalized fluorescence, fold increase over palivizumab, Hep G2, 5 hours ([2]; 5 hours) | Internalized fluorescence, fold increase over palivizumab, Hep G2, 24 hours ([2]; 24 hours) | Internalized fluorescence, fold increase over palivizumab, JHH-7, 5 hours ([3]; 5 hours) | Internalized fluorescence, fold increase over palivizumab, JHH-7, 24 hours ([3]; 24 hours)
> 60 nM: Kd [1] | Kd [4]
